Article PMC11568214, “The impact of 9-azaglycophymine and phenylguanidine derivatives on the proliferation of various breast cancer cell lines in vitro and in vivo” (Scientific Reports, 2024)

Key:
[1] = tested on: MCF-7, MDA-MB-468, BT-474 and HCC1937 breast cancer cells; experiment: Fast screening / CV cell viability, breast cancer cell line panel; type: cell-based, human; parameters: reduction of cell viability: concentration or dose not given beside the values; settings: for anti-proliferative / cytotoxic effect: screening at 1, 10 and 50 µM; for concentration below which active in cytotoxicity screening / reduction of cell viability: initial screening; for IC50: Homo sapiens, read-out: IC50 values (National Cancer Institute guideline criterion); for reduction of cell viability: after 72 h of treatment
Procedure: (§1) For initial testing of the cytotoxic effect of the available glycophymine compounds (Table S2), cells were treated with compound in three concentrations: 1, 10 and 50 µM. Cells were seeded in 96-well plates and allowed to adhere overnight. Then they were treated for 72 h under standard culture conditions. […] For IC50 determination, the compounds were tested at seven concentrations (0.78, 1.56, 3.13, 6.25, 12.5, 25 and 50 µM). Subsequently, the cell viability was determined by using the crystal violet (CV) assay. Moreover, the selected compounds were tested against the mouse breast cancer cell line 4T1 (TNBC) as well. The compounds were prepared initially to obtain a stock solution of 20 mM in DMSO. Later, the working solutions were prepared by mixing the required amount of DMSO stock with the optimal medium for each cell line. The DMSO concentration in the final solution was always maintained lower than 0.5% to avoid any DMSO-derived side effects.
(§2) For CV assays, after 72 h treatment, the treatment medium was discarded from the 96-well plates, and the cells were washed using 50 µL of PBS. Cells were fixed by adding 50 µL of 4% (v/v) paraformaldehyde (PFA) in PBS for 15 min at room temperature (RT). Afterwards, PFA was discarded, and the plates were dried for 15 min at RT. 50 µL of CV working solution (0.1% w/v CV in PBS) were added to the wells, followed by 15 min incubation at RT. Subsequently, the CV solution was discarded, and the plates were washed using aqua bidest. (ddH2O) to remove any remaining CV solution. The plates were left to dry overnight at RT, and then 50 µL of 33% (v/v) acetic acid in ddH2O were added to each well. Finally, the absorbance was measured at 570 nm by using a SpectraMax M5 plate reader (Molecular Devices, California, USA) and at 670 nm as background wavelength. […] Additionally, gefitinib, an approved EGFR inhibitor of the quinazoline family, was tested as anti-proliferative positive control. The data represent the mean ± standard deviation derived from three independent biological replicates. Dose–response curves were generated by four-parametric non-linear regression analysis using the GraphPad Prism software (version: 10.1, San Diego, CA, USA). Based on that, IC50 values and standard deviations were calculated for each replicate individually.

[2] = tested on: BT-474; experiment: Crystal violet (CV) cell viability assay, IC50 determination; type: cell-based; settings: Homo sapiens, 72 h treatment, mean ± SD
Procedure: as §1, §2

[3] = tested on: HCC1937; experiment: as above; type: cell-based; settings: Homo sapiens, 72 h treatment, mean ± SD
Procedure: as §1, §2

[4] = tested on: 4T1; experiment: as above; type: cell-based; settings: Mus musculus, 72 h treatment, mean ± SD
Procedure: as §1, §2

[5] = tested on: MCF-7; experiment: as above; type: cell-based; settings: Homo sapiens, MCF7, 72 h treatment, mean ± SD
Procedure: as §1, §2

[6] = tested on: MDA-MB-468; experiment: as above; type: cell-based, human; settings: Homo sapiens, MDA-MB-468, 72 h treatment, mean ± SD
Procedure: as §1, §2

[7] = tested on: HepG2 cell line; parameters: method as in PMID 34237623; settings: read-out: IC50 against the HepG2 cell line; cited from earlier work

Nc1ccc2nc(Nc3ccccc3)[nH]c(=O)c2c1 [Compound 49]
anti-proliferative / cytotoxic effect ([1]; 72 h): completely lack cytotoxic activity

O=c1[nH]c(Nc2ccccc2)nc2cc([N+](=O)[O-])ccc12 [Compound 46]
concentration below which active in cytotoxicity screening ([1]; 72 h): below 10 µM
anti-proliferative / cytotoxic effect ([1]; 72 h): significantly reduced cell proliferation
IC50 ([1]; 72 h): < 30 µg/mL
reduction of cell viability [1]: ≥ 50%
IC50 [2]: 4.4 ± 0.1 µM
IC50 [3]: 3.9 ± 0.2 µM
IC50 [4]: 7.9 ± 0.6 µM
IC50 [5]: 5.7 ± 0.6 µM
IC50 [6]: 6.9 ± 0.2 µM

O=c1[nH]c(Nc2ccccc2)nc2ccccc12 [Compound 15, 2-(phenylamino)quinazolin-4(1H)-one]
anti-proliferative / cytotoxic effect ([1]; 72 h): did not show any cytotoxic effect

Nc1ccc2c(=O)[nH]c(Nc3ccccc3)nc2c1 [Compound 48]
anti-proliferative / cytotoxic effect ([1]; 72 h): completely lack cytotoxic activity

O=c1[nH]c(Nc2ccc(Cl)cc2)nc2ccccc12 [Compound 22]
cytotoxicity relative to compound 19 ([1]; 72 h, CV assay): twofold less
concentration below which active in cytotoxicity screening ([1]; 72 h): below 10 µM
anti-proliferative / cytotoxic effect ([1]; 72 h): significantly reduced cell proliferation
IC50 ([1]; 72 h): < 30 µg/mL
reduction of cell viability [1]: ≥ 50%
IC50 [2]: 9.9 ± 1.5 µM
IC50 [3]: 14.8 ± 3.7 µM
IC50 [4]: 23.5 ± 7.2 µM
IC50 [5]: 10 ± 0.5 µM
IC50 [6]: 13 ± 0.4 µM

O=c1[nH]c(Nc2ccc(Cc3ccc([N+](=O)[O-])cc3[N+](=O)[O-])cc2)nc2ccccc12 [Compound 24]
concentration below which active in cytotoxicity screening ([1]; 72 h): below 10 µM
anti-proliferative / cytotoxic effect ([1]; 72 h): significantly reduced cell proliferation
IC50 ([1]; 72 h): < 30 µg/mL
reduction of cell viability [1]: ≥ 50%
IC50 [2]: 9.7 ± 1.3 µM
IC50 [3]: 11 ± 1.9 µM
IC50 [4]: 11.3 ± 3.5 µM
IC50 [5]: 10.3 ± 1.3 µM
IC50 [6]: 11.2 ± 1.8 µM

COc1cc(C(=O)c2nc3ccccc3c(=O)[nH]2)cc(OC)c1OC [2-(3,4,5-trimethoxybenzoyl)quinazolin-4(3H)-one]
IC50 [7]: 1.22 ± 0.12 µM

O=c1[nH]c(Nc2ccccc2)nc2ccc([N+](=O)[O-])cc12 [Compound 47]
concentration below which active in cytotoxicity screening ([1]; 72 h): below 10 µM
anti-proliferative / cytotoxic effect ([1]; 72 h): significantly reduced cell proliferation
IC50 ([1]; 72 h): < 30 µg/mL
reduction of cell viability [1]: ≥ 50%
IC50 [2]: 4.5 ± 0.2 µM
IC50 [3]: 4.4 ± 0.3 µM
IC50 [4]: 12.6 ± 1.2 µM
IC50 [5]: 6.3 ± 0.4 µM
IC50 [6]: 8 ± 0.3 µM
